We go through 23 compounds from ChEMBL document CHEMBL2157956, “Antibacterial activity of substituted dibenzo[a,g]quinolizin-7-ium derivatives” (2012).

In test [1] the test system is Staphylococcus aureus. Put plainly: Antibacterial activity against methicillin-sensitive Staphylococcus aureus 8325-4 by CLSI broth microdilution method. The class given is functional.
Test [2] has as its system Staphylococcus aureus. The experiment in a line: Antibacterial activity against methicillin-resistant Staphylococcus aureus ATCC 33591 by CLSI broth microdilution method. It counts as functional.
Test [3] relates to Enterococcus faecalis. Put plainly: Antibacterial activity against vancomycin-sensitive Enterococcus faecalis ATCC 19433 by CLSI broth microdilution method. The class given is functional.
Test [4] has as its system Enterococcus faecalis. Put plainly: Antibacterial activity against vancomycin-resistant Enterococcus faecalis ATCC 51575 by CLSI broth microdilution method. It counts as functional.
For test [5], the target named is T1, Cell division protein FtsZ (Staphylococcus aureus) (UniProt P0A031).
T1 sequence (whole entry): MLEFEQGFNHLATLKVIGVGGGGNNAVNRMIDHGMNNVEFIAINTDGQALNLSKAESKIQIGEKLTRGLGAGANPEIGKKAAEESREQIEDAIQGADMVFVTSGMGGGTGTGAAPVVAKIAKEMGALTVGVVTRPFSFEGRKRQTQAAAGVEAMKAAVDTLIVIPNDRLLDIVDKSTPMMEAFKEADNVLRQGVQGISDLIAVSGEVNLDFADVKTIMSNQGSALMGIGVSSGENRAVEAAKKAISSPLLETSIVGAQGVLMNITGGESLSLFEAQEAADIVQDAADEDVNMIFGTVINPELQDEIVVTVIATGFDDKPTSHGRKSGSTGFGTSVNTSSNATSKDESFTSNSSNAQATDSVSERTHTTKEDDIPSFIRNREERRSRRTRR
The experiment in a line: Induction of Staphylococcus aureus FtsZ self-polymerization assessed as increase in light scattering at 10 ug/mL by 90 deg angle light scattering assay. As to conditions: TDE = time-dependent effect.

In test [6] the target is T1, Cell division protein FtsZ (Staphylococcus aureus). The experiment in a line: Induction of Staphylococcus aureus FtsZ self-polymerization assessed as increase in light scattering at 20 ug/mL by 90 deg angle light scattering assay. To be noted: TDE = time-dependent effect.
For test [7] the target is unchanged. The experiment in a line: Induction of Staphylococcus aureus FtsZ self-polymerization assessed as increase in light scattering at 20 ug/mL measured every 5 secs by 90 deg angle light scattering assay.
For test [8] the target is unchanged. Put plainly: Inhibition of Staphylococcus aureus FtsZ self-polymerization assessed as decrease in light scattering at 20 ug/mL by 90 deg angle light scattering assay. As to conditions: TDE = time-dependent effect.

Values after ≈ are worked out from the molar mass of the structure shown. Active and inactive are the calls of the source. The calls are words filed in the database; no cut-off is given here.

For `COc1cc2cc3c4cc(-c5ccc(C(C)(C)C)cc5)c(OC)c(OC)c4cc[n+]3cc2cc1OC.[Cl-]`, the MIC turned out to be 4 µg/mL with Staphylococcus aureus [1], 4 µg/mL against Staphylococcus aureus [2], 4 µg/mL against Enterococcus faecalis [3] and 8 µg/mL against Enterococcus faecalis [4].

Turning to `CC(=O)OS(=O)(=O)[O-].COc1cc2cc3c4cc(-c5ccccc5)c(OC)c(OC)c4cc[n+]3c(C)c2cc1OC`, the minimal inhibitory concentration (MIC) in the test on Staphylococcus aureus [1] worked out at 2 µg/mL; with Staphylococcus aureus [2] it was 8 µg/mL; with Enterococcus faecalis [3], 8 µg/mL; in the test on Enterococcus faecalis [4] it was 16 µg/mL.

Regarding `COc1cc2cc3c4cc(-c5ccc(C)cc5)c(OC)cc4cc[n+]3cc2cc1OC.[Cl-]`, the minimal inhibitory concentration (MIC) is 2 µg/mL with Staphylococcus aureus [1], 8 µg/mL against Staphylococcus aureus [2], 16 µg/mL against Enterococcus faecalis [3] and more than 64 µg/mL in the test on Enterococcus faecalis [4].

Consider `COc1cc2cc3c4cc(-c5ccccc5)c(OC)cc4cc[n+]3cc2cc1OC.[Cl-]`, for which the MIC against Staphylococcus aureus [1] turned out to be 8 µg/mL; in the test on Staphylococcus aureus [2], 32 µg/mL; against Enterococcus faecalis [3] it was 32 µg/mL; in the test on Enterococcus faecalis [4] it was 64 µg/mL.

As to `CCC[C@@H]1C[C@@H](C(=O)N[C@@H]([C@H]2O[C@H](SC)[C@H](O)[C@@H](O)[C@H]2O)[C@H](C)Cl)N(C)C1` [CLINDAMYCIN], the MIC was 0.03 µg/mL (≈ 0.0706 µM) in the test with Staphylococcus aureus [1], more than 64 µg/mL with Staphylococcus aureus [2], 2 µg/mL (≈ 4.71 µM) against Enterococcus faecalis [3] and more than 64 µg/mL in the test on Enterococcus faecalis [4].

For `CC(=O)OS(=O)(=O)[O-].COc1cc2cc3c4cc(-c5ccc(C)cc5)c(OC)cc4cc[n+]3c(C)c2cc1OC`, the MIC is 4 µg/mL in the test on Staphylococcus aureus [1], 8 µg/mL in the test on Staphylococcus aureus [2], 8 µg/mL against Enterococcus faecalis [3] and more than 64 µg/mL against Enterococcus faecalis [4].

Regarding `COc1cc2cc3c4cc(-c5cccc6ccccc56)c(OC)c(OC)c4cc[n+]3cc2cc1OC.[Cl-]`, the MIC against Staphylococcus aureus [1] was 4 µg/mL; in the test with Staphylococcus aureus [2], 2 µg/mL; against Enterococcus faecalis [3], 8 µg/mL; in the test with Enterococcus faecalis [4] it was 8 µg/mL.

As for `COc1cc2cc[n+]3cc4cc(OC)c(OC)c(-c5ccc(-c6ccccc6)cc5)c4cc3c2cc1OC.[Cl-]`, the minimal inhibitory concentration (MIC) was 2 µg/mL with Staphylococcus aureus [1], 4 µg/mL in the test on Staphylococcus aureus [2], 8 µg/mL in the test on Enterococcus faecalis [3] and 32 µg/mL against Enterococcus faecalis [4].

As to `CC(C)C(=O)OS(=O)(=O)[O-].COc1cc2cc3c4cc(-c5ccc(-c6ccccc6)cc5)c(OC)c(OC)c4cc[n+]3c(C(C)C)c2cc1OC`, the MIC was 0.5 µg/mL against Staphylococcus aureus [1], 0.5 µg/mL with Staphylococcus aureus [2], 2 µg/mL with Enterococcus faecalis [3] and 2 µg/mL against Enterococcus faecalis [4]. For the same compound, the Activity result in test [5] and in test [6] was “tde” each time.

For the compound `CC(=O)OS(=O)(=O)[O-].COc1cc2cc3c4cc(-c5ccccc5)c(OC)cc4cc[n+]3c(C)c2cc1OC`, the MIC in the test with Staphylococcus aureus [1] was 8 µg/mL; in the test on Staphylococcus aureus [2] it was more than 64 µg/mL; with Enterococcus faecalis [3], more than 64 µg/mL; against Enterococcus faecalis [4], more than 64 µg/mL.

For `CC[C@H]1OC(=O)[C@H](C)[C@@H](O[C@H]2C[C@@](C)(OC)[C@@H](O)[C@H](C)O2)[C@H](C)[C@@H](O[C@@H]2O[C@H](C)C[C@H](N(C)C)[C@H]2O)[C@](C)(O)C[C@@H](C)C(=O)[C@H](C)[C@@H](O)[C@]1(C)O` [ERYTHROMYCIN], the MIC in the test with Staphylococcus aureus [1] is 0.13 µg/mL (≈ 0.177 µM); in the test with Staphylococcus aureus [2], more than 64 µg/mL; in the test with Enterococcus faecalis [3], 1 µg/mL (≈ 1.36 µM); in the test with Enterococcus faecalis [4], more than 64 µg/mL.

For `CN(C)[C@@H]1C(O)=C(C(N)=O)C(=O)[C@@]2(O)C(O)=C3C(=O)c4c(O)cccc4[C@@](C)(O)[C@H]3C[C@@H]12` [TETRACYCLINE], the MIC in the test with Staphylococcus aureus [1] is 0.06 µg/mL (≈ 0.135 µM); in the test with Staphylococcus aureus [2], 64 µg/mL (≈ 144 µM); with Enterococcus faecalis [3], 0.5 µg/mL (≈ 1.13 µM); in the test with Enterococcus faecalis [4] it was more than 64 µg/mL.

As for `COc1cc2cc3c4cc(-c5ccc(-c6ccccc6)cc5)c(OC)c(OC)c4cc[n+]3cc2cc1OC.[Cl-]`, the MIC worked out at 2 µg/mL with Staphylococcus aureus [1], 2 µg/mL against Staphylococcus aureus [2], 8 µg/mL against Enterococcus faecalis [3] and 4 µg/mL against Enterococcus faecalis [4].

Take `CN[C@H](CC(C)C)C(=O)N[C@H]1C(=O)N[C@@H](CC(N)=O)C(=O)N[C@H]2C(=O)N[C@H]3C(=O)N[C@H](C(=O)N[C@H](C(=O)O)c4cc(O)cc(O)c4-c4cc3ccc4O)[C@H](O)c3ccc(c(Cl)c3)Oc3cc2cc(c3O[C@@H]2O[C@H](CO)[C@@H](O)[C@H](O)[C@H]2O[C@H]2C[C@](C)(N)[C@H](O)[C@H](C)O2)Oc2ccc(cc2Cl)[C@H]1O` [VANCOMYCIN]: the MIC is 1 µg/mL (≈ 0.69 µM) in the test on Enterococcus faecalis [3] and more than 64 µg/mL against Enterococcus faecalis [4].

`COc1cc2c[n+]3ccc4c(OC)c(OC)ccc4c3cc2c(-c2ccc(-c3ccccc3)cc2)c1OC.[Cl-]`: the MIC is 2 µg/mL in the test on Staphylococcus aureus [1], 8 µg/mL against Staphylococcus aureus [2], 8 µg/mL against Enterococcus faecalis [3] and 16 µg/mL with Enterococcus faecalis [4].

In the case of `COc1ccc2cc3[n+](cc2c1OC)CCc1cc2c(cc1-3)OCO2` [BERBERINE], the MIC against Staphylococcus aureus [1], with Staphylococcus aureus [2], against Enterococcus faecalis [3] and in the test on Enterococcus faecalis [4] was more than 64 µg/mL throughout.

Take `CC(=O)OS(=O)(=O)[O-].COc1cc2c(C)[n+]3ccc4c(OC)c(OC)ccc4c3cc2c(-c2ccc(-c3ccccc3)cc2)c1OC`: the MIC against Staphylococcus aureus [1] was found to be 1 µg/mL; with Staphylococcus aureus [2] it was 4 µg/mL; against Enterococcus faecalis [3], 16 µg/mL; with Enterococcus faecalis [4], 16 µg/mL.

Consider `CC(=O)OS(=O)(=O)[O-].COc1cc2cc3c4cc(-c5ccc(C(C)(C)C)cc5)c(OC)c(OC)c4cc[n+]3c(C)c2cc1OC`, for which the minimal inhibitory concentration (MIC) turned out to be 1 µg/mL with Staphylococcus aureus [1], 2 µg/mL in the test with Staphylococcus aureus [2], 4 µg/mL in the test with Enterococcus faecalis [3] and 4 µg/mL against Enterococcus faecalis [4].

`CC(=O)OS(=O)(=O)[O-].COc1cc2cc3c4cc(-c5cccc6ccccc56)c(OC)c(OC)c4cc[n+]3c(C)c2cc1OC`: the MIC against Staphylococcus aureus [1] amounted to 1 µg/mL; against Staphylococcus aureus [2], 2 µg/mL; in the test with Enterococcus faecalis [3], 4 µg/mL; in the test on Enterococcus faecalis [4], 8 µg/mL.

Regarding `Cc1onc(-c2ccccc2)c1C(=O)N[C@@H]1C(=O)N2[C@@H]1SC(C)(C)[C@@H]2C(=O)O` [OXACILLIN], the MIC with Staphylococcus aureus [1] was 0.06 µg/mL (≈ 0.149 µM); against Staphylococcus aureus [2], more than 64 µg/mL; in the test with Enterococcus faecalis [3] it was 8 µg/mL (≈ 19.9 µM); in the test with Enterococcus faecalis [4], more than 64 µg/mL. The result in test [7] was inactive.

For `CC(=O)OS(=O)(=O)[O-].COc1cc2cc[n+]3c(C)c4cc(OC)c(OC)c(-c5ccc(-c6ccccc6)cc5)c4cc3c2cc1OC`, the MIC with Staphylococcus aureus [1] was 1 µg/mL; against Staphylococcus aureus [2], 4 µg/mL; with Enterococcus faecalis [3], 4 µg/mL; against Enterococcus faecalis [4] it was 32 µg/mL. In test [6], the Activity entry was “tde”. In test [8], the inhibition result is “tde”.

Regarding `COc1cc2cc3c4cc(-c5ccccc5)c(OC)c(OC)c4cc[n+]3cc2cc1OC.[Cl-]`, the MIC against Staphylococcus aureus [1] was found to be 4 µg/mL; in the test with Staphylococcus aureus [2] it was 8 µg/mL; in the test on Enterococcus faecalis [3], 16 µg/mL; with Enterococcus faecalis [4], 32 µg/mL.

On to `CC(=O)OS(=O)(=O)[O-].COc1cc2cc3c4cc(-c5ccc(-c6ccccc6)cc5)c(OC)c(OC)c4cc[n+]3c(C)c2cc1OC`, for which the MIC against Staphylococcus aureus [1] was found to be 1 µg/mL; against Staphylococcus aureus [2], 2 µg/mL; in the test with Enterococcus faecalis [3], 4 µg/mL; against Enterococcus faecalis [4] it was 8 µg/mL.
